{"source": "patent US6713051B2", "about": "“Antiperspirant or deodorant compositions” (Unilever Home & Personal Care USA division of Conopco, Inc., priority 2001, dated 2004)", "target": "T1, human PPARα (Homo sapiens, UniProt Q07869)", "T1 construct": "The coding region of a human PPARα cDNA was inserted downstream of the CMV promoter; expressed in transfected cells; host or cells: Cos-7 cells, transient transfection (pcDNA3.1(−)-PPARα, pRSV-RXRα, 3xPPRE-TK-luc reporter, pRL-TK)", "T1 sequence (Q07869 1-468)": "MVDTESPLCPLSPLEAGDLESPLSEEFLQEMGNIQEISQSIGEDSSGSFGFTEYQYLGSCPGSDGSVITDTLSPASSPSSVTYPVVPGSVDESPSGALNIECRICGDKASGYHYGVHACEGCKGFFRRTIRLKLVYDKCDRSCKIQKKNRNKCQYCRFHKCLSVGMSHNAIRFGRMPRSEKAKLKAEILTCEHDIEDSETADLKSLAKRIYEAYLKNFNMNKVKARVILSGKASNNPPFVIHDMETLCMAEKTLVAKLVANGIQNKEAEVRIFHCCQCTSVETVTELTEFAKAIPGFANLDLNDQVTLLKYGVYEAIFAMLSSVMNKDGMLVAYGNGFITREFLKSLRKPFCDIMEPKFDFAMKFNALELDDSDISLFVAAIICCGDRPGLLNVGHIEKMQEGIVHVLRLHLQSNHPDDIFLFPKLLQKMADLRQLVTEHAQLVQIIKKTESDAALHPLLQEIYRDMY", "T1 sequence (P19793 1-462 partner)": "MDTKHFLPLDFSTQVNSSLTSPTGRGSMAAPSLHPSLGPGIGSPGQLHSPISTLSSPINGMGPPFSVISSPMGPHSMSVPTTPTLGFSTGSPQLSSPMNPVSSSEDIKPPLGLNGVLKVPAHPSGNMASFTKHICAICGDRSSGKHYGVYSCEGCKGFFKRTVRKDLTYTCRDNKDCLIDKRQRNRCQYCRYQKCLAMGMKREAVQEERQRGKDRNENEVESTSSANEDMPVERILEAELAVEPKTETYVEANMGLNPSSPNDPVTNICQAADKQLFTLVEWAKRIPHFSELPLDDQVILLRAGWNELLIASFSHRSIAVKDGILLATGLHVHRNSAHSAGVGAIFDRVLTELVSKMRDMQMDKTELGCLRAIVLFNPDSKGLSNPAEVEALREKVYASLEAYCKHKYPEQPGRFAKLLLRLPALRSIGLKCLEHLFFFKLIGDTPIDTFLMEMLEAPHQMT", "test": "PPARα reporter gene assay (firefly luciferase, transiently transfected Cos-7 cells)", "assay_type": "cell-based"}
{"smiles": "CC\\C=C/C=C/C=C/C=C\\CCCCCCCC(=O)O", "note": "[cis parinaric acid, cis-parinaric acid]", "values": [{"measurement": "Result at (lowest administration level at which super or MS activity was achieved)", "result": 25, "unit": "μm"}, {"measurement": "Result (superior activity class achieved)", "setting": "class reached", "result": "super (superior activity [super] (50% higher—at least 2.25 times PPARα activation))"}, {"measurement": "Pass at (lowest tested administration level at which the test material passed)", "setting": "pass = activation greater than oleic acid at 100 μM, commonly >1.57 times vehicle control, 24 h treatment", "result": 10, "unit": "μm"}]}
